Experimental findings from patent US20240199623A1 (ILDONG PHARMACEUTICAL CO., LTD., priority 2020, published 2024) are described below.

Structures are written as SMILES.

human wild type-CFTR, sequence (P13569 whole entry): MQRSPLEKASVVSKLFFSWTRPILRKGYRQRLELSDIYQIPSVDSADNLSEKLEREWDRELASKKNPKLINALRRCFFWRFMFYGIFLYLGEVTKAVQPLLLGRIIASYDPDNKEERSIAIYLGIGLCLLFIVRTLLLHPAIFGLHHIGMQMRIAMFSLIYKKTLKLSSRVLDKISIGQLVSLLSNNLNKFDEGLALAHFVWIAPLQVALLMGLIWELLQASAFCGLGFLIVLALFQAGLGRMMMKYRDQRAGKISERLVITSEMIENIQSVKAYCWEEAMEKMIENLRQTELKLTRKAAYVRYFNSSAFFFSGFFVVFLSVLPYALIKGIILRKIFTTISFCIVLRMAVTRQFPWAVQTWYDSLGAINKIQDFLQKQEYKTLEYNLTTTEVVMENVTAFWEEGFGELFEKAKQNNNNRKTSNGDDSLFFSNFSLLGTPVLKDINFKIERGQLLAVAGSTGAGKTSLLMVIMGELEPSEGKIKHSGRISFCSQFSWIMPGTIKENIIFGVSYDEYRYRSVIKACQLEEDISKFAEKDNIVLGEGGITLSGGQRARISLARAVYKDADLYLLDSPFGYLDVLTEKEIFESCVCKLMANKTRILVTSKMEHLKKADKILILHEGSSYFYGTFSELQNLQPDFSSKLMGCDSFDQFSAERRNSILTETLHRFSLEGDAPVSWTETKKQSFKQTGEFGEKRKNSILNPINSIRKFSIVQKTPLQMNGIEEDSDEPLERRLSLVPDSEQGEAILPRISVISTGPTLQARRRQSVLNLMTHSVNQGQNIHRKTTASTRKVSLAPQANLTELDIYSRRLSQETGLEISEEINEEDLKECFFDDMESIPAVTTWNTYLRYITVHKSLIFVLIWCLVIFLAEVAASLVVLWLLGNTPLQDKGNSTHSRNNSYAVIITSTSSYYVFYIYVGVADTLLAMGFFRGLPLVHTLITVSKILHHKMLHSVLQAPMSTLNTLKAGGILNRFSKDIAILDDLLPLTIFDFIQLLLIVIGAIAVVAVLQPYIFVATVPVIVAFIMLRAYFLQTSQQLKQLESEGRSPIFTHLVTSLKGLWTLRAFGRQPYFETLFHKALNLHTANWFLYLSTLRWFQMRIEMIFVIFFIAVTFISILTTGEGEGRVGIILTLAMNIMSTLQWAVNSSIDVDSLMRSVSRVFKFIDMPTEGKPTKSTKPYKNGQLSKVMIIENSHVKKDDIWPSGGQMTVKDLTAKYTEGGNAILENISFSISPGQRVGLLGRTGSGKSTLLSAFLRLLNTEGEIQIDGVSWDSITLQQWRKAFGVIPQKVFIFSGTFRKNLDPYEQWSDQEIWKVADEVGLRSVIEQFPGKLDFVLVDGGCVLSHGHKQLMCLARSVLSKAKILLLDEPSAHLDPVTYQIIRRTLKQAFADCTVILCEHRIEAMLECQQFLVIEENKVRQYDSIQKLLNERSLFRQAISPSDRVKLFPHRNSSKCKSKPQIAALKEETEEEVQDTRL

In the assay the target is human wild type-CFTR (Homo sapiens, UniProt P13569). Description: Cell-based YFP assay. Further details: expressed in transfected cells; host or cells: CHO-K1 (Chinese hamster ovary). The settings on record: CHO-K1 cells expressing human wild type-CFTR and YFP-H148Q/I152L; forskolin 20 μM = 100% activity; read-out: Cell-based YFP Assay (EC50) Concentration Range. As for the experimental part:
Forskolin (Tocris cat. #1099), Dimethyl sulfoxide (Sigma cat. #D4540), FLUO star Omega microplate reader (BMG Labtech, Ortenberg, Germany), MARS Data Analysis Software (BMG Labtech), GraphPad Prism 5 (GraphPad Software, Inc.) Chinese hamster ovary (CHO-K1) cells expressing human wild type-CFTR and halide sensor YFP-H148Q/I152L were constructed and grown in Dulbecco's modified Eagle's medium (DMEM) supplemented with 10% FBS, 2 mM glutamine, 100 units/ml penicillin and 100 μg/ml streptomycin. Chinese hamster ovary (CHO-K1) cells expressing human wild type-CFTR and halide sensor YFP-H148Q/I152L were seeded in 96-well microplate with 2×10^4 cells/well and incubated in 37° C., 48 hours. Then, each well was washed 3 times with PBS and 100 μL PBS was added in each well. […] YFP fluorescence signal affected by I^− ion influx through CFTR channel was measured in 37° C., FLUO star Omega microplate reader according to the following steps: • i) basal 2 seconds; • ii) 140 mM I^− solution 100 μL addition to each well; • iii) YFP fluorescence signal measurement start after 6 seconds; and • iv) following 14 seconds signal detection in every 0.4 seconds periods. […] Experiments were performed in triplicates and the data was averaged. EC50 values were calculated with MARS Data Analysis Software (BMG Labtech) and GraphPad Prism 5.
As to `COc1ccc(-c2ccnc3cc(C(=O)NN4CCOCC4)nn23)cc1OC` [Compound 99, 7-(3,4-dimethoxyphenyl)-N-morpholinopyrazolo[1,5-a] pyrimidine-2-carboxamide], the EC50 was at least 2000 nM.

As for `COc1ccc(-c2ccnc3cc(C(=O)Nc4ccc(C(=O)N[C@@H](CO)C(=O)O)cc4)nn23)cc1OC` [Compound 45, (4-(7-(3,4-dimethoxyphenyl)pyrazolo[1,5-a]pyrimidine-2-carboxamido)benzoyl)-L-serine], the EC50 was at least 2000 nM.

Take `COc1ccc(-c2ccnc3cc(C(=O)N4CCN(C(=O)c5ccc(C)cc5)[C@@H](C)C4)nn23)cc1OC` [Compound 351, (S)-(7-(3,4-dimethoxyphenyl)pyrazolo[1,5-a]pyrimidin-2-yl)(3-methyl-4-(4-methylbenzoyl)piperazin-1-yl)methanone]: the EC50 was below 200 nM.

As for `COc1ccc(-c2ccnc3cc(C(=O)N(C)c4ccc(C(=O)N5CCN(C)CC5)cc4)nn23)cc1OC` [Compound 248, 7-(3,4-dimethoxyphenyl)-N-methyl-N-(4-(4-methylpiperazine-1-carbonyl)phenyl)pyrazolo [1,5-a]pyrimidine-2-carboxamide], the EC50 was at least 2000 nM.

Take `COc1ccc(-c2ccnc3cc(C(=O)N4CCN(C(=O)c5ccccc5OC)[C@@H](C)C4)nn23)cc1OC` [Compound 317, (S)-(7-(3,4-dimethoxyphenyl)pyrazolo[1,5-a]pyrimidin-2-yl)(4-(2-methoxybenzoyl)-3-methylpiperazin-1-yl) methanone]: the EC50 was in the range of 200 to 2000 nM.

For `COc1ccc(-c2ccnc3cc(C(=O)N[C@H]4CC[C@@H](C(N)=O)CC4)nn23)cc1OC` [Compound 71, N-((1S,4S)-4-carbamoylcyclohexyl)-7-(3,4-dimethoxyphenyl)pyrazolo [1,5-a]pyrimidine-2-carboxamide], the EC50 is at least 2000 nM.

Take `COc1ccc(-c2ccnc3cc(C(=O)N4CCN(C(=O)c5ccccc5C)[C@@H](C)C4)nn23)cc1OC` [Compound 381, (S)-(7-(3,4-dimethoxyphenyl)pyrazolo[1,5-a]pyrimidin-2-yl) (3-methyl-4-(2-methylbenzoyl)piperazin-1-yl)methanone]: the EC50 was below 200 nM.

For `COc1ccc(-c2ccnc3cc(C(=O)Nc4ccc(C(=O)N5CCOCC5)c(F)c4)nn23)cc1OC` [Compound 174, 7-(3,4-dimethoxyphenyl)-N-(3-fluoro-4-(morpholine-4-carbonyl)phenyl)pyrazolo[1,5-a]pyrimidine-2-carboxamide], the EC50 was below 200 nM.

For `COc1ccc(-c2ccnc3cc(C(=O)N4CCN[C@H](C)C4)nn23)cc1OC` [Compound 322, (R)-(7-(3,4-dimethoxyphenyl)pyrazolo[1,5-a]pyrimidin-2-yl)(3-methylpiperazin-1-yl)methanone], the EC50 was at least 2000 nM.

Regarding `COc1ccc(-c2ccnc3cc(C(=O)NC45CC(C(=O)N6CCN(C)CC6)(C4)C5)nn23)cc1OC` [Compound 123, 7-(3,4-dimethoxyphenyl)-N-(3-(4-methylpiperazine-1-carbonyl)bicyclo[1.1.1]pentan-1-yl) pyrazolo[1,5-a]pyrimidine-2-carboxamide], the EC50 was at least 2000 nM.

Regarding `COc1ccc(-c2ccnc3cc(C(=O)NC(=Cc4ccccc4)C(=O)O)nn23)cc1OC` [Compound 108, 2-(7-(3,4-dimethoxyphenyl)pyrazolo[1,5-a]pyrimidine-2-carboxamido)-3-phenylacrylic acid], the EC50 is at least 2000 nM.

On to `COc1ccc(-c2ccnc3cc(C(=O)Nc4ccc(CN5CCN(C)CC5)cc4)nn23)cc1OC` [Compound 243, 7-(3,4-dimethoxyphenyl)-N-(4-((4-methylpiperazin-1-yl)methyl)phenyl)pyrazolo [1,5-a]pyrimidine-2-carboxamide], for which the EC50 was 200 to 2000 nM.

Consider `COc1ccc(-c2ccnc3cc(C(=O)Nc4ccc(C(=O)N5CCN(c6ccccn6)CC5)cc4)nn23)cc1OC` [Compound 338, 7-(3,4-dimethoxyphenyl)-N-(4-(4-(pyridin-2-yl)piperazine-1-carbonyl)phenyl)pyrazolo[1,5-a]pyrimidine-2-carboxamide], for which the EC50 was below 200 nM.

`COc1ccc(-c2ccnc3cc(C(=O)N4CCN(C(=O)c5ccoc5)[C@@H](C)C4)nn23)cc1OC` [Compound 370, (S)-(7-(3,4-dimethoxyphenyl)pyrazolo[1,5-a]pyrimidin-2-yl)(4-(furan-3-carbonyl)-3-methylpiperazin-1-yl)methanone]: the EC50 is below 200 nM.

With `COc1ccc(-c2ccnc3cc(C(=O)N4CCN(C(=O)c5ccccc5Cl)[C@@H](C)C4)nn23)cc1OC` [Compound 260, (S)-(4-(2-chlorobenzoyl)-3-methylpiperazin-1-yl) (7-(3,4-dimethoxyphenyl)pyrazolo[1,5-a]pyrimidin-2-yl)methanone], the EC50 was 200 to 2000 nM.

With `COc1ccc(-c2ccnc3cc(C(=O)Nc4ccc(C(=O)N[C@@H](Cc5ccccc5)C(=O)O)cc4)nn23)cc1OC` [Compound 49, (4-(7-(3,4-dimethoxyphenyl)pyrazolo[1,5-a]pyrimidine-2-carboxamido)benzoyl)-L-phenylalanine], the EC50 fell in the range of 200 to 2000 nM.

As for `COc1ccc(-c2ccnc3cc(C(=O)N4CCNC(C)(C)C4)nn23)cc1OC` [Compound 182, (7-(3,4-dimethoxyphenyl)pyrazolo[1,5-a]pyrimidin-2-yl)(3,3-dimethylpiperazin-1-yl)methanone], the EC50 is at least 2000 nM.

Consider `COc1ccc(-c2ccnc3cc(C(=O)N4CCc5ccc(C(=O)O)cc5C4)nn23)cc1OC` [Compound 155, 2-(7-(3,4-dimethoxyphenyl)pyrazolo[1,5-a]pyrimidine-2-carbonyl)-1,2,3,4-tetrahydroisoquinoline-7-carboxylic acid], for which the EC50 is at least 2000 nM.

Turning to `COc1ccc(-c2ccnc3cc(C(=O)N4CCNC5(CC5)C4)nn23)cc1OC` [Compound 361, (7-(3,4-dimethoxyphenyl)pyrazolo[1,5-a]pyrimidin-2-yl)(4,7-diazaspiro[2.5]octan-7-yl)methanone], the EC50 is 200 to 2000 nM.

Take `COC(=O)c1ccc(NC(=O)c2cc3nccc(-c4ccc5c(c4)OCCO5)n3n2)cc1` [Compound 70, methyl 4-(7-(2,3-dihydrobenzo[b][1,4]dioxin-6-yl)pyrazolo[1,5-a]pyrimidine-2-carboxamido)benzoate]: the EC50 was at least 2000 nM.

In the case of `COc1ccc(-c2ccnc3cc(C(=O)Nc4ccc(Br)cc4)nn23)cc1OC` [Compound 268, N-(4-bromophenyl)-7-(3,4-dimethoxyphenyl)pyrazolo [1,5-a]pyrimidine-2-carboxamide], the EC50 was below 200 nM.

On to `COc1ccc(-c2ccnc3cc(C(=O)Nc4ccc5c(ccn5C)c4)nn23)cc1OC` [Compound 309, 7-(3,4-dimethoxyphenyl)-N-(1-methyl-1H-indol-5-yl)pyrazolo [1,5-a]pyrimidine-2-carboxamide], for which the EC50 was below 200 nM.

For the molecule `COc1ccc(-c2ccnc3cc(C(=O)Nc4ccc(N5CCN(C(C)C)CC5)cc4)nn23)cc1OC` [Compound 266, 7-(3,4-dimethoxyphenyl)-N-(4-(4-isopropylpiperazin-1-yl)phenyl)pyrazolo[1,5-a]pyrimidine-2-carboxamide], the EC50 is below 200 nM.

Turning to `COc1ccc(-c2ccnc3cc(C(=O)Nc4ccc(OC(=O)[C@H](C)NC(=O)OC(C)(C)C)cc4)nn23)cc1OC` [Compound 228, 4-(7-(3,4-dimethoxyphenyl)pyrazolo[1,5-a]pyrimidine-2-carboxamido) phenyl(tert-butoxycarbonyl)-L-alaninate], the EC50 is below 200 nM.

As for `COc1ccc(-c2ccnc3cc(C(=O)N4CCN(C(=O)c5ncccn5)[C@@H](C)C4)nn23)cc1OC` [Compound 383, (S)-(7-(3,4-dimethoxy-phenyl)pyrazolo[1,5-a]pyrimidin-2-yl)(3-methyl-4-(pyrimidine-2-carbonyl)piperazin-1-yl)methanone], the EC50 fell in the range of 200 to 2000 nM.

Take `CCCCOc1ccc(NC(=O)c2cc3nccc(-c4ccc(OC)c(OC)c4)n3n2)cc1` [Compound 229, N-(4-butoxyphenyl)-7-(3,4-dimethoxyphenyl)pyrazolo [1,5-a]pyrimidine-2-carboxamide]: the EC50 was below 200 nM.

For `COc1ccc(-c2ccnc3cc(C(=O)N4CCC(=O)C4)nn23)cc1OC` [Compound 117, 1-(7-(3,4-dimethoxyphenyl)pyrazolo[1,5-a]pyrimidine-2-carbonyl) pyrrolidin-3-one], the EC50 was at least 2000 nM.

`COc1ccc(-c2ccnc3cc(C(=O)Nc4ccc(C(=O)OCCN5CCN(C(=O)OC(C)(C)C)CC5)cc4)nn23)cc1OC` [Compound 275, tert-butyl 4-(2-((4-(7-(3,4-dimethoxyphenyl)pyrazolo [1,5-a]pyrimidine-2-carboxamido)benzoyl)oxy)ethyl)piperazine-1-carboxylate]: the EC50 was below 200 nM.

As to `COc1ccc(-c2ccnc3cc(C(=O)Nc4ccc(O)cn4)nn23)cc1OC` [Compound 327, 7-(3,4-dimethoxyphenyl)-N-(5-hydroxypyridin-2-yl)pyrazolo[1,5-a] pyrimidine-2-carboxamide], the EC50 is below 200 nM.
